The text below walks through data of patent US20150183802A1, “TRICYCLIC SULFONAMIDE DERIVATIVES” (NOVARTIS AG, priority 2013, published 2015).

Structures are written as SMILES.

This assay addresses T1, hNav1.7 channels (Homo sapiens, UniProt Q15858).
T1 construct: host or cells: HEK293
Nature of the assay: hNav1.7 channel in vitro patch-clamp assay. In kind it is cell-based. The settings on record: stable HEK293 cell line expressing hNav1.7; whole cell patch-clamp (QPatch HTX and/or conventional), room temperature; voltage protocol not given. The procedure:
hNav1.7 Channel In Vitro Patch-Clamp Assay
Cells: Sable HEK293 (human embryonic kidney) cell line expressing hNav1.7 channels was used in the assay. The cell line was obtained from Millipore (Millipore Corporation, MA).
Patch-clamp recordings: The recordings were performed on QPatch HTX (Sophion Bioscience, Denmark) and/or conventional patch-clamp (Axon Multiclamp 700B systems, Molecular Devices, CA) platforms at room temperature, using whole cell patch-clamp techniques. The composition of extracellular solution was (in mM): HEPES 5, NaCl 40, KCl 3, CaCl2 1, MgCl2 1, Choline Chloride 100. Adjust pH to 7.2 with 1N NaOH, osmolarity to 300-310 mOsm with sucrose. The composition of intracellular solution was (in mM): HEPES 10, NaCl 10, Na2ATP 1, MgCl2 2, KF 135, EGTA 10. Adjust pH to 7.2 with 1N NaOH, osmolarity to 290-300 mOsm with sucrose.
For conventional patch-clamp, 35 mm culture dishes containing hNav1.7 cells were placed on the stage of an inverted microscope and continuously perfused with extracellular solution from a perfusion system (Biologic Rapid solution changer, RSC-160, ˜1 ml/min). […] The recordings were controlled by pCLAMP10 software. Test compounds were dissolved in 100% DMSO to make stock solutions for each test concentration, and then diluted into extracellular solution to achieve final concentration for testing. Final DMSO concentration was less than 0.3%. Two voltage protocols were used in hNav1.7 assay: for non-inactivated protocol, the sodium currents were elicited by a 2 ms pulse to −10 mV from a holding potential of −110 mV. For inactivated protocol, the holding potential was set at V1/2. The voltage was firstly stepped to −110 mV for 50 ms, then to −10 mV for 2 ms and then stepped back to holding potential. In both protocols the voltage command was given in every 10 s. Compound effect (% inhibition) was determined by difference in current amplitude before and after the application of test compounds. IC50 values were determined from concentration-response curves that were obtained with Hill fitting.
For QPatch HTX assay, hNav1.7 cells grown to 50%-80% confluence were rinsed with DPBS and dissociated with Tryple (Invitrogen, 12605-010). The dissociated cells were then mixed with extracellular solution. After centrifuge, the cells were resuspended in extracellular solution and used in the QPatch experiment. The whole-cell protocols, voltage protocols and application protocols were established with QPatch Assay Software 3.4 (Sophion Bioscience, Denmark). Only the inactivated protocol was used in the QPatch assay.
(In general: In patch-clamp work, channel activity is measured electrically.)

T1 sequence (Q15858 whole entry): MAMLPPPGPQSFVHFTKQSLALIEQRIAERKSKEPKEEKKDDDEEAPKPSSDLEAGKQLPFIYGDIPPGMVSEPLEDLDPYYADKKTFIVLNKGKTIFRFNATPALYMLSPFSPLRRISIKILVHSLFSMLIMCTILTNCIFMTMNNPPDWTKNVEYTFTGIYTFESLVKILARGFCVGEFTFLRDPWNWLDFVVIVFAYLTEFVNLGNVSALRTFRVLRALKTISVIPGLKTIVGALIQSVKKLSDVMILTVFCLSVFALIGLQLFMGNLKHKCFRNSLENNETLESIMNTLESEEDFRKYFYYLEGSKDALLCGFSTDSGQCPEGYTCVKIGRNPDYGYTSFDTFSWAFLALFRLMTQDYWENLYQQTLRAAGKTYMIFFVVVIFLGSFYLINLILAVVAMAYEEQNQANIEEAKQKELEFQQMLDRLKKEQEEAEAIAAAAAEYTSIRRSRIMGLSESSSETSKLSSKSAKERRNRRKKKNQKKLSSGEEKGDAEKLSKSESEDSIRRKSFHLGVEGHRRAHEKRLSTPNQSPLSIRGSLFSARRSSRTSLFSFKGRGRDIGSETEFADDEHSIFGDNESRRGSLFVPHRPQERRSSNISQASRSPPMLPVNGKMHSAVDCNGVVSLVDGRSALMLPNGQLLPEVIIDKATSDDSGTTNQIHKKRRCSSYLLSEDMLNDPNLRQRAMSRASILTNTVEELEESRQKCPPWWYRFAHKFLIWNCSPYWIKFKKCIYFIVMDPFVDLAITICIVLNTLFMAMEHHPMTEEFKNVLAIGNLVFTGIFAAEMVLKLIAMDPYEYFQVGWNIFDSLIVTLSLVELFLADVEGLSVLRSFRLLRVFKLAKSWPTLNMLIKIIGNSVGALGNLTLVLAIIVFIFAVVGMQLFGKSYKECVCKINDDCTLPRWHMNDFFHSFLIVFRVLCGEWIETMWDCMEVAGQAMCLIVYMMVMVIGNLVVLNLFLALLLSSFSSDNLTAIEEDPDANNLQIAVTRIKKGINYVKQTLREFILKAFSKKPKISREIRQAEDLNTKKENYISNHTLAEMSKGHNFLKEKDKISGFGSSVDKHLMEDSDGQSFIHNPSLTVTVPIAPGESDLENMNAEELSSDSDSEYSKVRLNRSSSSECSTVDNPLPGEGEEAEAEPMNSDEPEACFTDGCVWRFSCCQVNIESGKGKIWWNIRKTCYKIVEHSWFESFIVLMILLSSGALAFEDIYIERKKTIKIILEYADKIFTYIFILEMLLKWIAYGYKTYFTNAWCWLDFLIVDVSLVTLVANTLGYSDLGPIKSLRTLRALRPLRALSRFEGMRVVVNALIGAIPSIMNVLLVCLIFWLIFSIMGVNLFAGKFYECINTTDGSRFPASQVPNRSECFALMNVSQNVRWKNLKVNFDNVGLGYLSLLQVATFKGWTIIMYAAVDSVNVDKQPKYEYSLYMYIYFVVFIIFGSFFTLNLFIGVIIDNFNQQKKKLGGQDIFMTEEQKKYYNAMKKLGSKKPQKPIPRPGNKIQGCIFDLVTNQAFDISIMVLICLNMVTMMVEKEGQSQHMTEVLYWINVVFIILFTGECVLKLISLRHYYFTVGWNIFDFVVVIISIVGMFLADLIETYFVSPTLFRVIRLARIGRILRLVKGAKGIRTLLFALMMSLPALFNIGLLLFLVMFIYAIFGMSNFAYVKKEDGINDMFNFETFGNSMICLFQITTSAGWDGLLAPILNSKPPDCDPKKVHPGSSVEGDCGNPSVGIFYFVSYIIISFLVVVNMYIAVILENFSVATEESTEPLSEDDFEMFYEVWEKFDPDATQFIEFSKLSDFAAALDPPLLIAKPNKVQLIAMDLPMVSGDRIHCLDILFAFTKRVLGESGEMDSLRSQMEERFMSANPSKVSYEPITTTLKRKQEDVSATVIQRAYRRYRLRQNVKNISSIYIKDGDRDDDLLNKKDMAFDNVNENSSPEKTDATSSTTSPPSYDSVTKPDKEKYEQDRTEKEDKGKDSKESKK

A word on the IC50: it is the concentration at which inhibition is half-maximal. Higher therefore signals weaker potency. `CC(C)COc1ncc(-n2c(=O)n(C)c3cc4c(NS(C)(=O)=O)noc4cc32)cc1Cl` [Example 34, N-(7-(5-chloro-6-isobutoxypyridin-3-yl)-5-methyl-6-oxo-6,7-dihydro-5H-imidazo[4′,5′:4,5]benzo[1,2-d]isoxazol-3-yl)methanesulfonamide] yielded an IC50 of 100 nM. Regarding `CC(C)COc1ncc(-n2c(=O)n(C)c3cc4c(NS(=O)(=O)C5CC5)noc4cc32)cc1Cl` [Example 35, N-(7-(5-chloro-6-isobutoxypyridin-3-yl)-5-methyl-6-oxo-6,7-dihydro-5H-imidazo[4′,5′:4,5]benzo[1,2-d]isoxazol-3-yl)cyclopropanesulfonamide], half-maximal inhibition (IC50) was put at 100 nM. Regarding `CC(C)COc1ncc(N2C(=O)C(C)(C)c3cc4c(NS(=O)(=O)C5CC5)noc4cc32)cc1Cl` [Example 36, N-(7-(5-chloro-6-isobutoxypyridin-3-yl)-5,5-dimethyl-6-oxo-6,7-dihydro-5H-isoxazolo[4,5-f]indol-3-yl)cyclopropanesulfonamide], the IC50 came to 70 nM.

The compound `CC(C)COc1ncc(N2C(=O)C3(CCC3)c3cc4c(NS(=O)(=O)C5CC5)noc4cc32)cc1Cl` [Example 37, N-(7′-(5-chloro-6-isobutoxypyridin-3-yl)-6′-oxo-6′,7′-dihydrospiro[cyclobutane-1,5′-isoxazolo[4,5-f]indol]-3′-yl)cyclopropanesulfonamide] returned an IC50 of 40 nM. Take `CC(C)COc1ncc(N2C(=O)C3(CCCC3)c3cc4c(NS(=O)(=O)C5CC5)noc4cc32)cc1Cl` [Example 38, N-(7′-(5-chloro-6-isobutoxypyridin-3-yl)-6′-oxo-6′,7′-dihydrospiro[cyclopentane-1,5′-isoxazolo[4,5-f]indol]-3′-yl)cyclopropanesulfonamide]: the midpoint of inhibition, the IC50, lay at 500 nM. In the case of `CC(C)COc1ncc(N2C(=O)C3(CCCCC3)c3cc4c(NS(=O)(=O)C5CC5)noc4cc32)cc1Cl` [Example 39, N-(7′-(5-chloro-6-isobutoxypyridin-3-yl)-6′-oxo-6′,7′-dihydrospiro[cyclohexane-1,5′-isoxazolo[4,5-f]indol]-3′-yl)cyclopropanesulfonamide] it was 700 nM. `CC(C)COc1ncc(-n2c(C(F)(F)F)cc3cc4c(NS(C)(=O)=O)noc4cc32)cc1Cl` [Example 40b, N-(7-(5-chloro-6-isobutoxypyridin-3-yl)-6-(trifluoromethyl)-7H-isoxazolo[4,5-f]indol-3-yl)methanesulfonamide] showed a half-inhibitory concentration (IC50) of 40 nM. In the case of `CC(C)COc1ncc(-n2cc(C(F)(F)F)c3cc4c(NS(=O)(=O)C5CC5)noc4cc32)cc1Cl` [Example 41, N-(7-(5-chloro-6-isobutoxypyridin-3-yl)-5-(trifluoromethyl)-7H-isoxazolo[4,5-f]indol-3-yl)cyclopropanesulfonamide], the IC50 came out at 50 nM. `Cc1cn(-c2cnc(OCC(C)C)c(Cl)c2)c2cc3onc(NS(=O)(=O)C4CC4)c3cc12` [Example 42, N-(7-(5-chloro-6-isobutoxypyridin-3-yl)-5-methyl-7H-isoxazolo[4,54]indol-3-yl)cyclopropanesulfonamide] returned an IC50 of 70 nM. In the case of `CC(C)COc1ncc(-n2c(C(F)(F)F)nc3cc4c(NS(=O)(=O)C5CC5)noc4cc32)cc1Cl` [Example 43, N-(7-(5-chloro-6-isobutoxypyridin-3-yl)-6-(trifluoromethyl)-7H-imidazo[4′,5′:4,5]benzo[1,2-d]isoxazol-3-yl)cyclopropanesulfonamide] it was 100 nM; in that of `Cc1nn(-c2cnc(OCC(C)C)c(Cl)c2)c2cc3onc(NS(C)(=O)=O)c3cc12` [Example 44, N-(7-(5-chloro-6-isobutoxypyridin-3-yl)-5-methyl-7H-isoxazolo[4,54]indazol-3-yl)methanesulfonamide], 100 nM.

`Cc1nn(-c2cnc(OCC(C)C)c(Cl)c2)c2cc3onc(NS(=O)(=O)C4CC4)c3cc12` [Example 45, N-(7-(5-chloro-6-isobutoxypyridin-3-yl)-5-methyl-7H-isoxazolo[4,5-f]indazol-3-yl)cyclopropanesulfonamide] came in with a concentration for half-maximal inhibition (IC50) of 30 nM. The compound `Cc1nn(-c2ccc(Cl)c(Cl)c2)c2cc3onc(NS(=O)(=O)C4CC4)c3cc12` [Example 46, N-(7-(3,4-dichlorophenyl)-5-methyl-7H-isoxazolo[4,5-f]indazol-3-yl)cyclopropanesulfonamide] returned an IC50 of 100 nM. Compound `CC(C)COc1ncc(-c2nn(C)c3cc4c(NS(=O)(=O)C5CC5)noc4cc23)cc1Cl` [Example 47, N-(7-(5-chloro-6-isobutoxypyridin-3-yl)-5-methyl-5H-isoxazolo[5,4-f]indazol-3-yl)cyclopropanesulfonamide] gave an IC50 of 400 nM. On to `CC(C)COc1ncc(-n2cc(C#N)c3cc4c(NS(=O)(=O)C5CC5)noc4cc32)cc1Cl` [Example 48, N-(7-(5-chloro-6-isobutoxypyridin-3-yl)-5-cyano-7H-isoxazolo[4,54]indol-3-yl)cyclopropanesulfonamide], for which the IC50 came out at 220 nM. For `CC(C)COc1ncc(-n2cc(C(N)=O)c3cc4c(NS(=O)(=O)C5CC5)noc4cc32)cc1Cl` [Example 49, 7-(5-chloro-6-isobutoxypyridin-3-yl)-3-(cyclopropanesulfonamido)-7H-isoxazolo[4,5-f]indole-5-carboxamide], half-maximal inhibition (IC50) was put at 1180 nM. The compound `CC(C)COc1ncc(-c2nccc3cc4c(NS(=O)(=O)C5CC5)noc4cc23)cc1Cl` [Example 50, N-(8-(5-chloro-6-isobutoxypyridin-3-yl)isoxazolo[4,5-g]isoquinolin-3-yl)cyclopropanesulfonamide] came in with a half-inhibitory concentration (IC50) of 110 nM. The result for `CC(C)COc1ncc(-c2nccc3cc4c(NS(C)(=O)=O)noc4cc23)cc1Cl` [Example 51, N-(8-(5-chloro-6-isobutoxypyridin-3-yl)isoxazolo[4,5-g]isoquinolin-3-yl)methanesulfonamide] reads 300 nM; that for `O=S(=O)(Nc1noc2cc3c(-c4ccc(Cl)c(Cl)c4)nccc3cc12)C1CC1` [Example 52], 800 nM.

`CC(C)COc1ncc(-c2nccc3cc4c(NS(=O)(=O)N(C)C)noc4cc23)cc1Cl` [Example 53, N-(8-(5-chloro-6-isobutoxypyridin-3-yl)isoxazolo[4,5-g]isoquinolin-3-yl)N—N-dimethylsulfamide] returned a concentration for half-maximal inhibition (IC50) of 1070 nM. The result for `CC(C)COc1ncc(-c2ccnc3cc4c(NS(=O)(=O)C5CC5)noc4cc23)cc1Cl` [Example 55, N-(8-(5-chloro-6-isobutoxypyridin-3-yl)isoxazolo[5,4-g]quinolin-3-yl)cyclopropanesulfonamide] reads 850 nM; that for `CC(C)COc1ncc(-c2cncc3cc4c(NS(C)(=O)=O)noc4cc23)cc1Cl` [Example 57, N-(8-(5-chloro-6-isobutoxypyridin-3-yl)isoxazolo[5,4-g]isoquinolin-3-yl)methanesulfonamide], 2360 nM.

In turn, `CC(C)COc1ncc(-c2cccc3cc4c(NS(=O)(=O)C5CC5)noc4cc23)cc1Cl` [Example 58, N-(8-(5-chloro-6-isobutoxypyridin-3-yl)naphtho[2,3-d]isoxazol-3-yl)cyclopropanesulfonamide] yielded a concentration for half-maximal inhibition (IC50) of 10 nM. `Cc1cnc(-c2cnc(OCC(C)C)c(Cl)c2)c2cc3onc(NS(=O)(=O)C4CC4)c3cc12` [Example 60, N-(8-(5-chloro-6-isobutoxypyridin-3-yl)-5-methylisoxazolo[4,5-g]isoquinolin-3-yl)cyclopropanesulfonamide] displayed a 50% inhibitory concentration (IC50) of 1870 nM. For the compound `Cc1cc2cc3c(NS(=O)(=O)C4CC4)noc3cc2c(-c2cnc(OCC(C)C)c(Cl)c2)n1` [Example 61, N-(8-(5-chloro-6-isobutoxypyridin-3-yl)-6-methylisoxazolo[4,5-g]isoquinolin-3-yl)cyclopropanesulfonamide], the IC50 was determined as 510 nM.

In turn, `CC(C)COc1ncc(N2C(=O)C3(CC3)Oc3cc4c(NS(=O)(=O)C5CC5)noc4cc32)cc1Cl` [Example 62, N-(8′-(5-chloro-6-isobutoxypyridin-3-yl)-7′-oxo-7′,8′-dihydrospiro[cyclopropane-1,6′-isoxazolo[5′,4′:4,5]benzo[1,2-b][1,4]oxazin]-3′-yl)cyclopropanesulfonamide] displayed a half-inhibitory concentration (IC50) of 100 nM.

With `CC(C)COc1ncc(N2CCOc3cc4c(NS(C)(=O)=O)noc4cc32)cc1Cl` [Example 63, N-(8-(5-chloro-6-isobutoxypyridin-3-yl)-7,8-dihydro-6H-isoxazolo[5′,4′:4,5]benzo[1,2-b][1,4]oxazin-3-yl)methanesulfonamide], inhibition was half-maximal at 530 nM (IC50).
